Active and inactive are the calls of the source. The rule behind the calls is not given here.
Tests used:
[1] = target: Nuclear receptor subfamily 5 group A member 2 (Homo sapiens) (UniProt O00482)
[2] = target: Steroidogenic factor 1 (Homo sapiens) (UniProt Q13285); test: Agonist activity at recombinant full length SF1 (unknown origin) transfected in human HeLa cells incubated for 24 hrs by renilla luciferase reporter gene assay; type: cell-based
[3] = system: Nuclear receptor subfamily 5 group A member 2 (Homo sapiens), O00482 [T352V]; test: Activation of human full length LRH1 T352V mutant transfected in human HeLa cells at 10 uM incubated for 24 hrs by renilla luciferase reporter gene assay; type: cell-based
[4] = system: Nuclear receptor subfamily 5 group A member 2 (Homo sapiens), O00482 [M345L]; test: Activation of human full length LRH1 M345L mutant transfected in human HeLa cells at 10 uM incubated for 24 hrs by renilla luciferase reporter gene assay; type: cell-based
[5] = system: Nuclear receptor subfamily 5 group A member 2 (Homo sapiens), O00482 [H390A]; test: Activation of human full length LRH1 H390A mutant transfected in human HeLa cells at 10 uM incubated for 24 hrs by renilla luciferase reporter gene assay; type: cell-based
Mus musculus [6] = species on record: Mus musculus; test: Effect on Cyp11a1 mRNA expression in LRH1 knock-out mouse enteroids at 1 uM pretreated with TNF-alpha followed incubation with compound for overnight by real-time PCR analysis; type: functional
Mus musculus [7] = species on record: Mus musculus; test: Effect on Cyp11b1 mRNA expression in LRH1 knock-out mouse enteroids at 1 uM pretreated with TNF-alpha followed incubation with compound for overnight by real-time PCR analysis; type: functional

Sequence of Steroidogenic factor 1 (Homo sapiens) (Q13285 whole entry): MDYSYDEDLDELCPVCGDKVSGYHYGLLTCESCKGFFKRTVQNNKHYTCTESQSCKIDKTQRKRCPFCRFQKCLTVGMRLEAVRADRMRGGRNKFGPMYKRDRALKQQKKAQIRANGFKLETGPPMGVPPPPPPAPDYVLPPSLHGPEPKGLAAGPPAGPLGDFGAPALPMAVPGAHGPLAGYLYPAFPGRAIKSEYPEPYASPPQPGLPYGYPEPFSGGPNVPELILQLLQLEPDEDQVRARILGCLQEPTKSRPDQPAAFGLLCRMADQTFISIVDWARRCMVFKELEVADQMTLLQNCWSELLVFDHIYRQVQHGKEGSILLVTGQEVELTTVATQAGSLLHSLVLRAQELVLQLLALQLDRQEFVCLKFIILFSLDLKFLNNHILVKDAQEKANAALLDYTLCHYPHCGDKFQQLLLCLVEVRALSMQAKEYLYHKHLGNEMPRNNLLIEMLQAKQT
Sequence of Nuclear receptor subfamily 5 group A member 2 (Homo sapiens) (O00482 whole entry): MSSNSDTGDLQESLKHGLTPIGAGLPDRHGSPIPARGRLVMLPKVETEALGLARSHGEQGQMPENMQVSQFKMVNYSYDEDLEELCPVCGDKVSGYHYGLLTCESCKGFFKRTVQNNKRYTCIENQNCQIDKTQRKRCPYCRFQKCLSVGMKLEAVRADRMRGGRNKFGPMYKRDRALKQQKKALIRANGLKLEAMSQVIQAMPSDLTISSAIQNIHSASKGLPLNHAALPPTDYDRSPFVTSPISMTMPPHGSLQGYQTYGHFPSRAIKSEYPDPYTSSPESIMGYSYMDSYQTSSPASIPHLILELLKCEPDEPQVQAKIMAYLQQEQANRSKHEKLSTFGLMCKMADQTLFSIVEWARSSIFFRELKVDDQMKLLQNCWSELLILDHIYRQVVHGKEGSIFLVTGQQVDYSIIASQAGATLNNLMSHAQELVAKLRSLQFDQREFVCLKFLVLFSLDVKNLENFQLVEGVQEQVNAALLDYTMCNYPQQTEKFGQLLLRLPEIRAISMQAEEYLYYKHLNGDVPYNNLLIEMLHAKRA
Sequence of Nuclear receptor subfamily 5 group A member 2 (Homo sapiens), O00482 [M345L] (O00482 whole entry M345L): as the sequence (O00482 whole entry) above, with M345L counted along it
Sequence of Nuclear receptor subfamily 5 group A member 2 (Homo sapiens), O00482 [H390A] (O00482 whole entry H390A): as the sequence (O00482 whole entry) above, with H390A counted along it
Sequence of Nuclear receptor subfamily 5 group A member 2 (Homo sapiens), O00482 [T352V] (O00482 whole entry T352V): as the sequence (O00482 whole entry) above, with T352V counted along it

ΔTm [1] [°C]	Activity [2]	Structure (SMILES)	further results
3 to 8	Active	C=C(c1ccccc1)[C@@]12CC[C@H](OS(N)(=O)=O)[C@@H]1CC(CCCCCC)=C2c1ccccc1 (racemic)	
3 to 8		C=C(c1ccccc1)[C@@]12CC[C@H](OS(=O)(=O)NC(N)=O)[C@@H]1CC(CCCCCC)=C2c1ccccc1 (racemic)	
3 to 8		C=C(c1ccccc1)[C@@]12CC[C@@H](OS(N)(=O)=O)[C@@H]1CC(CCCCCC)=C2c1ccccc1 (racemic)	

The next lines start with the compound.

Structure (SMILES)	ΔTm [1] [°C]	Activity [2]	further results
C=C(c1ccccc1)[C@@]12CC[C@H](n3ccnn3)[C@@H]1CC(CCCCCC)=C2c1ccccc1 (racemic)	3 to 8		
C=C(c1ccccc1)[C@@]12CC[C@@H](O)[C@@H]1CC(CCCCCC)=C2c1ccccc1		Active	
C=C(c1ccccc1)[C@@]12CC[C@H](NC(C)=O)[C@@H]1CC(CCCCCC)=C2c1ccccc1 (racemic)		inactive	Activity [3]: Active; Activity [4]: Active; Activity [5]: inactive
C=C(c1ccccc1)[C@@]12CC[C@H](NS(N)(=O)=O)[C@@H]1CC(CCCCCC)=C2c1ccccc1 (racemic)		Active	Activity (Mus musculus [6]): inactive; Activity (Mus musculus [7]): inactive

Reference: ChEMBL document CHEMBL4321799, “Development of the First Low Nanomolar Liver Receptor Homolog-1 Agonist through Structure-guided Design” (J Med Chem, 2019)
